Measured values from patent publication US20240261244A1, “METHODS FOR TREATING VIRAL INFECTIONS” (Daarsh Innovations, Inc., priority 2023, published 2024).

Tested on: SARS Cov-2 virus
Type: cell-based
Settings: 90 μL test solution + 10 μL virus (about 10^5 PFU/ml), 3 minutes contact at room temperature; plaque assay on Vero E6 cells

O=C(O)CN(CCN(CC(=O)O)CC(=O)O)CC(=O)O [EDTA 5%, ethylenediaminetetraacetic acid]
Residual Viral Load (Log PFU/0.1 ml): 3.40 Log PFU/0.1 ml
